Several values for one entry are separate records, joined by “and”; a condition that tells them apart may be missing. Equal entries are not always repeated. Where two headings read alike, the source gives them in different places. Non-standard residues stand in square brackets, D forms with d. Residues, ends and D or L forms follow the SMILES beside them. NMeH = CN[C@@H](Cc1c[nH]cn1)C(=O)O; Gly(N-CH2CH2OH) = O=C(O)CNCCO; NMeL = CN[C@@H](CC(C)C)C(=O)O
Key:
[1] = target: T1, HCoV-229E spike protein (Human coronavirus 229E, UniProt P15423); test: Microscale thermophoresis (MST) direct binding; settings: NT647-labeled spike protein, PBS, triplicate
T1 construct: purchased Acrobiosystems SPN-H52H3
T1 sequence (P15423 16-1173): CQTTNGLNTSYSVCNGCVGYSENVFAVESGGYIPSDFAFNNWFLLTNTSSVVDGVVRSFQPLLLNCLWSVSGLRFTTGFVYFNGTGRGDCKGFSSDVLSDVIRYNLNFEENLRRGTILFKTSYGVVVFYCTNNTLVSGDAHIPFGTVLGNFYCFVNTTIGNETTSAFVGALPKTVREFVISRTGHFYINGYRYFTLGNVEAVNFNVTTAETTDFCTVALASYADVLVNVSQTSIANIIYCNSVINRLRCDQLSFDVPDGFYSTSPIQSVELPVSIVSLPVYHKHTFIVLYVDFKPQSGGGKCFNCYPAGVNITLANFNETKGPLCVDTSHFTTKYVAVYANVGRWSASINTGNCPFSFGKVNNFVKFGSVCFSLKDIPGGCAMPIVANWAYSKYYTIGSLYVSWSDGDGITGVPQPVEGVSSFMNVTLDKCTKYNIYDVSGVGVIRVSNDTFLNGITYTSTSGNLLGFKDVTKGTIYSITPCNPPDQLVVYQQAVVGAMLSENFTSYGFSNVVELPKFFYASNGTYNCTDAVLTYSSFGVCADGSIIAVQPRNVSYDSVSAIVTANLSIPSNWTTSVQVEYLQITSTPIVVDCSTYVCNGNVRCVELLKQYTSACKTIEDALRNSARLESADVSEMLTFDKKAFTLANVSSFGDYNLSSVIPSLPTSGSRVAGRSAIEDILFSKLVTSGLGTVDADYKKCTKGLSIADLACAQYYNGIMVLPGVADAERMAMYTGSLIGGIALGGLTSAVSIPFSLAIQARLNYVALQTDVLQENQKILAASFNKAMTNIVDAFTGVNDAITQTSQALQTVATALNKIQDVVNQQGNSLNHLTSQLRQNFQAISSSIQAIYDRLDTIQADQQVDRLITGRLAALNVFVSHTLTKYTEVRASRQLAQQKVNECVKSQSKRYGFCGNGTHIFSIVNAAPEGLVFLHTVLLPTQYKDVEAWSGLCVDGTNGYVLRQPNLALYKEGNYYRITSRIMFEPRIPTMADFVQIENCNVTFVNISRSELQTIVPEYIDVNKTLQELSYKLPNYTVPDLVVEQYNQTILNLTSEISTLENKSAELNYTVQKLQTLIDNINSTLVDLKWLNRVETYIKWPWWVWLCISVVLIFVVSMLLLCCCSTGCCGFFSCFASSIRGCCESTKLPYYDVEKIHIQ

[2] = target: T1, HCoV-229E spike protein; test: Surface plasmon resonance (SPR) direct binding; settings: spike immobilized on CM5 chip, HBS-P+ buffer, 25 °C, 1:1 model, koff/kon
[3] = test system: 229E Coronavirus
[4] = target: T1, HCoV-229E spike protein; test: Nanoscale differential scanning fluorometry (nanoDSF) thermal shift; assay type: binding; settings: for ∆Tm: 200 μM compound, 2 μM spike protein, PBS pH 7.4; for Tm: 200 μM peptide, 2 µM protein, ramp 20-95 °C
[5] = test system: Influenza A H1N1 Virus; design: method as in earlier work; settings: concentration that reduced the cytopathic effect by 50%; cited from earlier work
[6] = concentration that reduced the cytopathic effect by 50%, virus pre-incubated with compound 1 h at 4 °C, compound present 72 h, MRC-5 cells, mean ± standard error of three experiments

| Structure (SMILES) | Kd [1] [nM] | Kd [2] [nM] | EC50 [3, 6] | ∆Tm [4] [°C] | Tm [4] [°C] | EC50 [5] [nM] | EC50 ([3]; read-out: EC50, Infection Cycle, compound present during adsorption and entire replication cycle (1 h + 72 h)) [nM] |
| --- | --- | --- | --- | --- | --- | --- | --- |
| CC(=O)N[C@@H](CO)C(=O)N[C@@H](CCCCN)C(=O)N[C@@H](Cc1c[nH]cn1)C(=O)N[C@@H](CO)C(N)=O [Compound 2, SKHS] (Ac-SKHS-NH2) | 5120 ± 600 | 41400 ± 870 | 500 ± 2 nM |  |  |  |  |
| CC(=O)N[C@@H](CO)C(=O)N[C@@H](CCCCN)C(=O)N[C@@H](Cc1c[nH]cn1)C(=O)N(CCO)CC(N)=O [Compound 6, SKHNhS] (Ac-SKH[Gly(N-CH2CH2OH)]-NH2) | 11000 ± 800 | 1510 ± 465 |  | 0.4 | 82.0 | 0.5 ± 0.004 |  |
| CC(=O)N[C@@H](CO)C(=O)N(C)[C@@H](CC(C)C)C(=O)N[C@@H](CC(=O)O)C(=O)N[C@@H](CS)C(N)=O [Compound 4, S(N-Me)LDC] (Ac-S[NMeL]DC-NH2) | 2600 ± 1300 | 1150 ± 182 |  | 0.1 | 81.7 | 0.085 ± 0.0004 |  |
| CC(=O)N[C@@H](CO)C(=O)N[C@@H](CC(C)C)C(=O)N[C@@H](CC(=O)O)C(=O)N[C@@H](CS)C(N)=O [Compound 1, SLDC] (Ac-SLDC-NH2) | 4920 ± 700 | > 50000 | 50 ± 0.4 nM |  |  |  |  |
| CC(=O)N[C@@H](CO)C(=O)N[C@@H](CCCCN)C(=O)N(C)[C@@H](Cc1c[nH]cn1)C(=O)N[C@@H](CO)C(N)=O [Compound 3, SK(N-Me)HS] (Ac-SK[NMeH]S-NH2) | 390 ± 50 | 416 ± 442 | ~0.031 nM and 0.031 nM | 0.3 | 81.9 | 0.142 ± 0.002 | 0.043 |

Reference: publication PMC12389581, “Inhibition of Human Coronavirus 229E by Lactoferrin-Derived Peptidomimetics” (Pharmaceutics, 2025)
